Assay results taken from patent publication US12564591B2, “HCK as a therapeutic target in MYD88 mutated diseases” (Dana-Farber Cancer Institute, Inc., priority 2019, dated 2026).
“Also recorded” adds a separate entry of the source. Like-named read-outs stand apart in the source and are kept apart here. One block for each compound: values may come before it.

Columns and labels:
[1] = Survivability of treated subjects; assay type: in vivo; conditions: compared to subjects treated with other BTK inhibitors (e.g., ibrutinib, A419259)
[2] = test system: HCK phosphorylation at Thr^209; conditions: MYD88 mutated WM and ABC DLBCL cells
[3] = Liver microsome stability; assay type: in vitro ADME; conditions: mouse, liver microsomes
[4] = Murine pharmacokinetics (intravenous and oral); assay type: in vivo; conditions: mouse, serum; for bioavailability: read-out: bioavailability (% F)
[5] = test system: vector, HCK^WT or HCK^T333M transduced TMD8 ABC DLBCL cells; test: HCK^T333M gatekeeper mutant rescue, dose-response 72 hours; assay type: cell-based
Protocol: Dose-responses of vector only or HCK^WT or HCK^T333M transduced […] cells following the treatment Compound (I) for 72 hours (FIG. 7A).

[6] = Liver microsome stability; assay type: in vitro ADME; conditions: rat, liver microsomes
[7] = test system: pBTK, pAKT, pERK1/2, and pSYK; test: Western blot of downstream signaling in HCK^WT or HCK^T333M transduced BCWM.1 cells; assay type: cell-based
From the text: (§1) An HCK gatekeeper mutant HCK^T333M was generated and rescue experiments performed in MYD88 mutated BCWM.1 cells. Expression of HCK^T333M produced a more than 20-fold increase in resistance to Compound (I) versus vector or wild-type HCK transduced BCWM.1 cells (FIG. 5A).

[8] = biological target: T1, LYN (Homo sapiens, UniProt P07948); test: Enzymatic assay (SelectScreen, Life Technologies); assay type: biochemical
T1 sequence (P07948 whole entry): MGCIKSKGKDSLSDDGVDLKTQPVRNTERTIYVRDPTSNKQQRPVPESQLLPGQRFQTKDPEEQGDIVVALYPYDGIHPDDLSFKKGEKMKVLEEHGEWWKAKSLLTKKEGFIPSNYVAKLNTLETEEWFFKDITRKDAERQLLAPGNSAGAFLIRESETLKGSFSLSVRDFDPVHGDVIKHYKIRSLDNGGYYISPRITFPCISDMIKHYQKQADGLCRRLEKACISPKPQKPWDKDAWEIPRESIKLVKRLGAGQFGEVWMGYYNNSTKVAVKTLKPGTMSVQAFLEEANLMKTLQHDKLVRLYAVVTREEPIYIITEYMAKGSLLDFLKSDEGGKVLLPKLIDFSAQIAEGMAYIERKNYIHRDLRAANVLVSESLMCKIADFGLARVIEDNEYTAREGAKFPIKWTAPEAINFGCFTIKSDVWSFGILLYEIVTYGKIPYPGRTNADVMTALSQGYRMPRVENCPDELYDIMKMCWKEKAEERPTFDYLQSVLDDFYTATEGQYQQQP

[9] = biological target: hERG (Homo sapiens, UniProt Q12809); test: hERG testing (patch clamp) for cardiotoxicity; assay type: cell-based; conditions: at 16 μM
From the text: (§2) […]. […] […].

[10] = test system: BTK and ERK 1/2 phosphorylation; conditions: vector only, and BTK^WT transduced BCWM.1 or TMD8 cells, 1.0 hour
[11] = biological target: T2, BTK (Homo sapiens, UniProt Q06187); test: Enzymatic / biochemical kinase assay (SelectScreen, Life Technologies); design: purchased Life Technologies (SelectScreen)
T2 sequence (Q06187 whole entry): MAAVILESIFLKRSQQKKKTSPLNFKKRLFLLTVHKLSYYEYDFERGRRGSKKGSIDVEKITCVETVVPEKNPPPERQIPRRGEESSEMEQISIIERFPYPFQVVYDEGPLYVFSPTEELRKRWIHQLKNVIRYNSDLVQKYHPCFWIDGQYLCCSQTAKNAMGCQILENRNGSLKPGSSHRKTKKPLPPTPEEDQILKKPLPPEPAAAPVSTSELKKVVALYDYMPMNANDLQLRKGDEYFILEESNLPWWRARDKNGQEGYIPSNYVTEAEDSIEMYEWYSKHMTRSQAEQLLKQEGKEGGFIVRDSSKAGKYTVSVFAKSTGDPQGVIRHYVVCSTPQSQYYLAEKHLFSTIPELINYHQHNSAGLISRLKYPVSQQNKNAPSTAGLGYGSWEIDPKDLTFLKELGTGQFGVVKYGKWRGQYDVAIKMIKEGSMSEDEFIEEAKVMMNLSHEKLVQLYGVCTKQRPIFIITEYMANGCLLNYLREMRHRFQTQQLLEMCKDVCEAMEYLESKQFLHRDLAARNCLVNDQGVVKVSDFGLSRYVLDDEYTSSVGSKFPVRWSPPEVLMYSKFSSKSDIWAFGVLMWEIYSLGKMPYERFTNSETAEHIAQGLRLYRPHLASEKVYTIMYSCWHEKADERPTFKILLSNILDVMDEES

[12] = test system: MYD88 mutated WM and ABC DLBCL cell lines versus MYD88 wild-type GCB DLBCL, Burkitt's Lymphoma, and multiple myeloma cell lines; test: CellTiter-Glo cell viability, MYD88 mutated versus wild-type cell lines; assay type: cell-based
[13] = test system: primary MYD88 mutated bone marrow derived CD19-positive lymphoplasmacytic cells (LPCs) from WM patients; test: Apoptosis of primary WM patient lymphoplasmacytic cells; assay type: cell-based, human
Protocol: (§3) The anti-tumor activity of Compound (I) was also assessed using primary MYD88 mutated bone marrow derived CD19-positive lymphoplasmacytic cells (LPCs) from WM patients, and compared effects against healthy donor CD19+ B-cells.

[14] = Liver microsome stability; assay type: in vitro ADME; conditions: human, liver microsomes
[15] = test system: p-HCK and p-BTK in WM patients LPCs; test: p-HCK and p-BTK by PhosFlow in MYD88 mutated WM patient bone marrow tumor cells; assay type: cell-based, human
Protocol: as §3

[16] = test system: healthy donor CD19+ B-cells; test: Apoptosis of healthy donor B-cells; assay type: cell-based, human
Protocol: as §3

[17] = test system: kinases in TMD8 ABC DLBCL cells; test: KiNativ live-cell target engagement profiling (desthiobiotin-ATP probe); assay type: cell-based
[18] = Tolerability study, daily oral dosing; assay type: in vivo; conditions: up to 75 mg/kg daily oral dosing, NOD-SCID mice dosed for >6 weeks, no adverse events observed
From the text: as §2

[19] = biological target: T1, LYN; test: ATP-competitive pulldown assay (desthiobiotin-ATP probe, western blot) in live BCWM.1 and TMD8 cells; assay type: cell-based; design: endogenous in cells; host or cells: BCWM.1 and TMD8 cells
[20] = biological target: T2, BTK; test: as above; assay type: cell-based; conditions: live cell pre-treatment
[21] = biological target: T3, HCK (Homo sapiens, UniProt P08631); test: Enzymatic / biochemical kinase assay (SelectScreen, Life Technologies)
T3 sequence (P08631 whole entry): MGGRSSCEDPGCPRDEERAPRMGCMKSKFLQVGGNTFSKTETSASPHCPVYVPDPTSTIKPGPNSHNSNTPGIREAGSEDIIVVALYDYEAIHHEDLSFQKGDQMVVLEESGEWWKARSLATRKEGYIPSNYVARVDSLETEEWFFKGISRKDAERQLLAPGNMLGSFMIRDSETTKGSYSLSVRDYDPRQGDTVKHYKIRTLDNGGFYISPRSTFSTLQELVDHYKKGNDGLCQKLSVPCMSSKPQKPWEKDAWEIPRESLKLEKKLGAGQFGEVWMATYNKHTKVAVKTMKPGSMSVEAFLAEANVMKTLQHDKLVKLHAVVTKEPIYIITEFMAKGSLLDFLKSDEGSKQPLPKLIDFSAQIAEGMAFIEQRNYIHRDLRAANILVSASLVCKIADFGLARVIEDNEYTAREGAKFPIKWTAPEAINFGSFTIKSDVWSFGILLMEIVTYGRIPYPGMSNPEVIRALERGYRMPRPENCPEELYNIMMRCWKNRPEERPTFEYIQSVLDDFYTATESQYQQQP

[22] = test system: Salmonella typhimurium tester strains (TA98, TA100, TA1535 and TA1537); test: Ames genotoxicity testing; conditions: up to 50 μM with and without metabolic activation by rat liver S9 fraction
[23] = test system: HCK activation (pHCK^Y411); test: pHCK by PhosFlow in HCK^WT or HCK^T333M transduced BCWM.1 cells; assay type: cell-based; conditions: HCK^T333M but not HCK^WT expressing BCWM.1 cells
From the text: as §1

[24] = test system: vector, HCK^WT or HCK^T333M transduced MWCL-1 WM cells; test: HCK^T333M gatekeeper mutant rescue, dose-response 72 hours; assay type: cell-based
Protocol: Dose-responses of vector only or HCK^WT or HCK^T333M transduced MWCL-1 cells following the treatment Compound (I) for 72 hours (FIG. 6A).

[25] = test system: vector, HCK^WT or HCK^T333M transduced BCWM.1 cells; test: as above; assay type: cell-based; conditions: versus vector or wild-type HCK transduced BCWM.1 cells
From the text: as §1

[26] = Plasma protein binding; assay type: in vitro ADME
From the text: as §2

[27] = test system: panel of 464 kinases; test: KINOMEscan kinome selectivity profiling (DiscoverX); assay type: binding; conditions: for S(1) score / S(10) score: 1.0 μM, panel of over 460 kinases
Protocol: The compounds were profiled at a concentration of 1.0 μM against a panel of over 460 kinases by DiscoverX.

[28] = biological target: T3, HCK; test: ATP-competitive pulldown assay (desthiobiotin-ATP probe, western blot) in live BCWM.1 and TMD8 cells; assay type: cell-based; design: purchased Life Technologies (SelectScreen); conditions: live cell pre-treatment
[29] = Liver microsome stability; assay type: in vitro ADME; conditions: dog, liver microsomes; dogs; read-out: half-life t1/2 with purified microsomes
[30] = biological target: CYP2B6 (Homo sapiens, UniProt P20813); test: In vitro CYP inhibition; assay type: in vitro ADME; design: dose or concentration left out as unconfirmed; conditions: at 10 PM, read-out: CYP inhibition (2B6)
Sequence of CYP2B6 (P20813 whole entry): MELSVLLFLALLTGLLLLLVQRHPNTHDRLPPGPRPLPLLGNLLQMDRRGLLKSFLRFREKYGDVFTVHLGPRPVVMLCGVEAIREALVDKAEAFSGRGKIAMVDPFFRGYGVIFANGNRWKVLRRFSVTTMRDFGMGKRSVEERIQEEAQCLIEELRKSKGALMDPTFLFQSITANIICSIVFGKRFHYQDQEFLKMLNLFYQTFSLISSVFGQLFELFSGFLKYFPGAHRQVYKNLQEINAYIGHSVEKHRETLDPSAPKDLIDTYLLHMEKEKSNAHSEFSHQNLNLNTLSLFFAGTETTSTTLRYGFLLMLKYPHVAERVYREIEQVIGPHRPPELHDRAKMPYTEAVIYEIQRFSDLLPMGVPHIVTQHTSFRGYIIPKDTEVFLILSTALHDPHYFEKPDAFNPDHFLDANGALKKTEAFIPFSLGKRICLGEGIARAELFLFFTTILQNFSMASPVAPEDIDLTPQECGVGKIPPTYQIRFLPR
From the text: as §2

[31] = test system: CYP1A; test: In vitro CYP inhibition; assay type: in vitro ADME; design: dose or concentration left out as unconfirmed; conditions: at 10 PM; read-out: CYP inhibition (1A)
From the text: as §2

[32] = biological target: CYP2C8 (Homo sapiens, UniProt P10632); test: In vitro CYP inhibition; assay type: in vitro ADME; design: dose or concentration left out as unconfirmed; conditions: at 10 PM, read-out: CYP inhibition (2C8)
Sequence of CYP2C8 (P10632 whole entry): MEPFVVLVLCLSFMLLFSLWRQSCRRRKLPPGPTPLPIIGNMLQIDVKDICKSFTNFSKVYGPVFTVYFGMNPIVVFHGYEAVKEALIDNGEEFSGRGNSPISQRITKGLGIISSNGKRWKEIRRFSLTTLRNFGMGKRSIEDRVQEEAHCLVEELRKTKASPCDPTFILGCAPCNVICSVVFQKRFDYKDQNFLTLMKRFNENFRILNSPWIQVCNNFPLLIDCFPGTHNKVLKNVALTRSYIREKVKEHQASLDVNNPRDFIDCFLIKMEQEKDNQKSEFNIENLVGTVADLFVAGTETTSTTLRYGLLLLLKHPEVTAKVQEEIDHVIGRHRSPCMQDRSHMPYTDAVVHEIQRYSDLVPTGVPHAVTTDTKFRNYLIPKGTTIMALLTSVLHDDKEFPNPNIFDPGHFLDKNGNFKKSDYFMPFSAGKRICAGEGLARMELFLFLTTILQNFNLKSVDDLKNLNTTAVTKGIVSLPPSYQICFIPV
From the text: as §2

[33] = biological target: CYP2D6 (Homo sapiens, UniProt P10635); test: In vitro CYP inhibition; assay type: in vitro ADME; design: dose or concentration left out as unconfirmed; conditions: at 10 PM, read-out: CYP inhibition (2D6)
Sequence of CYP2D6 (P10635 whole entry): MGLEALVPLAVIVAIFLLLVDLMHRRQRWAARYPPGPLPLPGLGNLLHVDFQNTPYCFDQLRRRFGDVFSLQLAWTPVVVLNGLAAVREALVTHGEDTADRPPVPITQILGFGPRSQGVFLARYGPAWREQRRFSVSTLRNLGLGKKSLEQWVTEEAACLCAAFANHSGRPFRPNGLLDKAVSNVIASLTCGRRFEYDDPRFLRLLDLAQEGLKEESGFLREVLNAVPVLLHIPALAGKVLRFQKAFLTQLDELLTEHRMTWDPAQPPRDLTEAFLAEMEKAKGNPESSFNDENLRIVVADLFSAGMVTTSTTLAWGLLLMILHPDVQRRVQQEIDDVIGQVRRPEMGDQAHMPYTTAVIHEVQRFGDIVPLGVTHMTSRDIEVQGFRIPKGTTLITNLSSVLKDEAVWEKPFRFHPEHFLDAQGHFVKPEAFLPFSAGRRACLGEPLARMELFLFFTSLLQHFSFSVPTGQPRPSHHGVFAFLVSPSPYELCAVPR
From the text: as §2

[34] = biological target: CYP2C19 (Homo sapiens, UniProt P33261); test: In vitro CYP inhibition; assay type: in vitro ADME; design: dose or concentration left out as unconfirmed; conditions: at 10 PM, read-out: CYP inhibition (2C19)
Sequence of CYP2C19 (P33261 whole entry): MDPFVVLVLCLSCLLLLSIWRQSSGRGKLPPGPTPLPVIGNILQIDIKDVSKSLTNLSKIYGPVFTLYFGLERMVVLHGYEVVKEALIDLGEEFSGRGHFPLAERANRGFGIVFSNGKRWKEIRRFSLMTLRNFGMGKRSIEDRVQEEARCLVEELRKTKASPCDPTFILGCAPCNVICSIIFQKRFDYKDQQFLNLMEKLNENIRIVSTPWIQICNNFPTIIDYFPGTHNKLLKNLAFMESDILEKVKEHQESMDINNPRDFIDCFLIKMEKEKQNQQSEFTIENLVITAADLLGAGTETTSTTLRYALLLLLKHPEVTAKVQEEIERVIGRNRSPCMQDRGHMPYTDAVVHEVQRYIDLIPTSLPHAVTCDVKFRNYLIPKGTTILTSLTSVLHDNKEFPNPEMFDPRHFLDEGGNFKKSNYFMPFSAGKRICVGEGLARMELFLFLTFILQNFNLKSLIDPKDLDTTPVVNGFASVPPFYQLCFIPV
From the text: as §2

[35] = biological target: CYP2C9 (Homo sapiens, UniProt P11712); test: In vitro CYP inhibition; assay type: in vitro ADME; design: dose or concentration left out as unconfirmed; conditions: at 10 PM, read-out: CYP inhibition (2C9)
Sequence of CYP2C9 (P11712 whole entry): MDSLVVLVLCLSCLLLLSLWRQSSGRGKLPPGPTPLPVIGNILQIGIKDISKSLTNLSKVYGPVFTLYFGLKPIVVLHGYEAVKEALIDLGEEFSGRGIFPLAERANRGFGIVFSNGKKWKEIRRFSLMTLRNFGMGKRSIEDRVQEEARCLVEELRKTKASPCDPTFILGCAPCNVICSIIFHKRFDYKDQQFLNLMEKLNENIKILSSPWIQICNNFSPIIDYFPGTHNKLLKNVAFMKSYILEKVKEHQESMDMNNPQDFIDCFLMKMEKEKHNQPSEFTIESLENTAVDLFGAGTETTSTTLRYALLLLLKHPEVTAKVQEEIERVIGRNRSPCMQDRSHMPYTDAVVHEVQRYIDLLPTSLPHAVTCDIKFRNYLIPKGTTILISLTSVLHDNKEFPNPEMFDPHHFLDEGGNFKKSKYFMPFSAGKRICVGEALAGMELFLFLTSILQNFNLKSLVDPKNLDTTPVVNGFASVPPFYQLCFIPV
From the text: as §2

[36] = Pharmacokinetics of A419259 under oral administration
[37] = read-out: T1/2 in liver microsomes
[38] = HCK^T333M expressing BCWM.1 cells

Structure (SMILES): CN1CCN(C2CCC(n3nc(-c4ccc(Oc5ccccc5)cc4)c4c(N)ncnc43)CC2)CC1 (stereo not shown) [Compound (I), 1-((1r,4r)-4-(4-methylpiperazin-1-yl)cyclohexyl)-3-(4-phenoxyphenyl)-1H-pyrazolo[3,4-d]pyrimidin-4-amine]
survivability [1]: increased survivability
inhibition of HCK phosphorylation [2]: robust inhibition
half-life ([3]; mice, read-out: half-life t1/2 with purified microsomes): 1.77 h
half-life [3, 37]: ≥ 1 h
clearance ([4]; intravenous, 2 mg/kg, read-out: in vivo clearance rate): 17.4 mL/min/kg
bioavailability ([4]; po, 10 mg/kg, 10 mg/kg oral): 49%
bioavailability ([4]; po, 25 mg/kg, 25 mg/kg oral): 55%
AUC ([4]; po, orally at 10 mg/kg): 5.2 µM·h
half-life ([4]; po, orally at 10 mg/kg and 25 mg/kg, read-out: T1/2): 15.1 to 16.9 h
AUC ([4]; po, orally at 25 mg/kg): 11.4 µM·h
half-life ([4]; 10 mg/kg oral, read-out: serum half-life (converted)): 15.1 h
half-life ([4]; 25 mg/kg oral, read-out: serum half-life (converted)): 16.9 h
half-life ([4]; intravenous administration (2 mg/kg), read-out: serum half-life (converted)): 11.5 h
effect of HCK^T333M on compound induced cell death [5]: rescues Compound (I) induced cell death
half-life ([6]; rats, read-out: half-life t1/2 with purified microsomes): > 2 h
half-life [6, 37]: ≥ 1 h
attenuation of pBTK, pAKT, pERK1/2, and pSYK [7, 38]: abrogated
pBTK [7, 38]: continued to show reduced activity
expression of pBTK, pAKT, pERK1/2, and p-SYK ([7]; HCK^WT expressing BCWM.1 cells): blocked the expression of pBTK, pAKT, pERK1/2, and p-SYK in a dose dependent manner
IC50s (in words) [8]: single-digit nanomolar
hERG cardiotoxicity (patch clamp) [9]: negative
BTK and ERK 1/2 phosphorylation [10]: effectively blocked
IC50s (in words) [11]: single-digit nanomolar
anti-tumor activity [12]: targeted anti-tumor activity
apoptotic effect [13]: robust apoptosis
half-life ([14]; humans, read-out: half-life t1/2 with purified microsomes): 0.825 h
half-life [14, 37]: ≥ 1 h
p-HCK and p-BTK levels [15]: reduction of p-HCK(T209) and p-BTK^Y223
apoptotic effect [16]: no apoptotic effect
activity against SRC-family kinases (HCK, BLK, LYN, FRK), Tec-family kinases (BTK), ACK (TNK2), CSK, ErbB2, and ABL [17]: nanomolar activity
target engagement (block of kinase binding to desthiobiotin-ATP probe) ([17]; TMD8 ABC DLBCL cells treated at 1. μM): strongly targeted both HCK and BTK
tolerability [18]: well-tolerated
binding to LYN [19]: very strongly binds
BTK inhibition / binding [20]: effectively binds
IC50s (in words) [21]: single-digit nanomolar
Ames genotoxicity [22]: negative
HCK activation in the presence of compound [23]: persistent activation of HCK
effect of HCK^T333M on compound induced cell death [24]: rescues Compound (I) induced cell death
increase in resistance by expression of HCK^T333M [25]: more than 20 fold
fraction unbound ([26]; dog, dogs): 0.05
fraction unbound ([26]; human, humans): 0.043
fraction unbound ([26]; mouse, mice): 0.023
fraction unbound ([26]; rat, rats): 0.045
S(1) score [27]: 0.07
S(10) score [27]: 0.13
S10 ([27]; panel of 464 kinases): 0.07
S35 ([27]; panel of 464 kinases): 0.13
targeted kinases ([27]; panel of 464 kinases): mainly limited to the Src-family kinases HCK, BLK, LYN, and FRK, and the Tec-family kinase BTK
engagement of / binding to HCK [28]: robust engagement; also recorded: very strongly binds
half-life [29]: 1 h
inhibition [30]: 64.5%
inhibition [31]: -27.9%
inhibition [32]: -3.8%
inhibition [33]: 24.9%
inhibition [34]: 0.8%
inhibition [35]: -10.9%

IC50 [11]: 0.915 nM
IC50 [21]: < 0.495 nM
Structure (SMILES): CN1CCN([C@H]2CC[C@H](n3nc(-c4ccc(Oc5ccccc5)cc4)c4c(N)ncnc43)CC2)CC1 [Compound (I), 1-((1r,4r)-4-(4-methylpiperazin-1-yl)cyclohexyl)-3-(4-phenoxyphenyl)-1H-pyrazolo[3,4-d]pyrimidin-4-amine]

Tui2 [36]: 176.0 h
Structure (SMILES): CN1CCN(C2CCC(n3cc(-c4ccc(Oc5ccccc5)cc4)c4c(N)ncnc43)CC2)CC1 (stereo not shown) [Compound A419259, reference compound]
S(1) score [27]: 0.07
S(10) score [27]: 0.13
